Laboratory results reported in US9283208B2, “Medicaments and methods for treating cancer” (NIIKI PHARMA INC., priority 2011, dated 2016).
Marks after values point to notes of the source that are not given here.

Columns and labels:
[1] = tested on: certain types of cancer; details: See U.S. Pat. No. 7,338,946; cited from earlier work
[2] = tested on: patients with advanced solid tumors refractory to treatment; experiment: Phase I dose-escalation trial (US): safety, tolerability, DLT and MTD; assay type: in vivo, human
From the text: (§1) Two Phase I dose-escalation clinical studies involving sodium trans-[tetrachlorobis(1H-indazole)ruthenate (III)] (“test drug”) have been conducted. The primary objective of both studies is to determine the safety, tolerability and maximal tolerated dose (MTD) of the test drug. Secondary objectives are to estimate the PK parameters, to identify any preliminary evidence of anti-tumor activity of the test drug in patients with advanced cancers, and to explore pharmacodynamic (PD) endpoints which may be of use in the further development of the test drug.
(§2) In the first trial which has been conducted in two centers in the US, the “test drug” was given intravenously once a week, i.e., on days 1, 8, and 15 of each 28-day cycle to patients with advanced solid tumors refractory to treatment. The patients had advanced solid tumors that had been heavily treated previously, had failed an average of 7 previous lines of chemotherapy, and had progressing disease at the time of entry into the trial. Standard 3+3 design with expanded cohort up to 25 patients at the maximal tolerated dose (MTD).
Major Inclusion/Exclusion Criteria: • Patients≧18 years with histologically or cytologically confirmed advanced solid tumors refractory to standard therapies • ECOG PS 0 or 1 • Adequate hematologic, hepatic and renal function • No symptomatic CNS metastases, no primary brain tumors • No evidence of ischemia, recent MI, or significant abnormality on ECG • No Peripheral neuropathy ≧Grade 2 • Minimum life expectancy ≧12 weeks
Definition of Dose Limiting Toxicity (DLT):
Toxicity severity graded according to the CTCAE (ver. 3.0); occurring during Cycle 1 and related to test drug: • Grade 4 neutropenia for ≧7 days • Febrile neutropenia • Grade 4 thrombocytopenia or Grade • ≧Grade 2 neurotoxicity • ≧Grade 2 cardiotoxicity • Grade 2 hypersensitivity reaction or infusion reaction • Any other non-hematologic Grade 3 or 4 toxicity other than nausea/vomiting or alopecia • Inability to complete the first cycle due to any toxicity thought to be related to test drug.

[3] = tested on: advanced solid tumors refractory to treatment; experiment: Phase I dose-escalation trial (US): anti-tumor activity (partial response or stable disease); assay type: in vivo, human
From the text: as §1, §2
36 pts completed ≧one cycle of therapy and are evaluable to assess antitumor efficacy. […] All patients had PD at study entry.

[4] = tested on: advanced solid tumors refractory to treatment; experiment: Phase I dose-escalation trial (UK): anti-tumor effect; assay type: in vivo, human
From the text: as §1
(§3) The second trial was conducted in two centers in the United Kingdom (UK) with the test drug being administered on days 1 through 4 of each 21-day cycle to patients with advanced solid tumors refractory to treatment. The patients had been heavily pre-treated and had failed an average of 3 previous lines of chemotherapy. Dose escalation progressed from 20 to 500 mg/m^2.

[5] = Pharmacokinetics in patients: plasma total ruthenium; assay type: in vivo, human; details: for C1D8 Hour 0 ng/mL Ru / C2D1 Hour 0 ng/mL Ru: pre-infusion trough
Procedure: (§4) Pharmacokinetics: PK samples were obtained 0, 0.25, 0.5, 1, 2, 4, 6-8, 10-12, and 24 hours after the start of the infusion on Cycle 1 Day 1 as well as pre-infusion on Cycle 1 Day 8 and Cycle 2 Day 1. Plasma and urine were analyzed for total ruthenium [Ru] (free and bound). […] Peak plasma Ru levels were achieved by hour 2 (FIG. 2A). […] The estimated T½ is 91.4-112 hours.

[6] = Pharmacokinetics in patients: urinary excretion of ruthenium; assay type: in vivo, human; details: in the 24 hours following Cycle 1 Day 1 dosing
Procedure: as §4

[7] = tested on: patients with advanced solid tumors refractory to treatment; experiment: Infusional fever with or without steroid premedication (US trial); assay type: in vivo, human
Procedure: (§5) Thereafter, in the US trial, in some patients, premedication of decadron (dexamethasone) was administered, with or without 5HT3 antagonists (serotonin antagonists) like ondansetron and granisetron. The decadron was given to prevent fever, at 4-10 mg IV. […] None of the patients premedicated with decadron had any incidence of infusion-related fever.

[8] = tested on: patients with advanced solid tumors refractory to treatment; experiment: Phase I dose-escalation trial (UK): adverse reactions; assay type: in vivo, human; details: dose of 320 mg/m^2 and above
Procedure: as §3, §5

[9] = US trial, IV once a week on days 1, 8, 15 of 28-day cycle
[10] = 320 mg/m^2, total drug 630 mg, NET (carcinoid tumor of small intestine), 3 prior systemic therapies
[11] = 320 mg/m^2, total drug 630 mg, NET (carcinoid tumor of small intestine), 3 prior systemic therapies, listed as Sodium trans-[tetrachlorobis(1H-indazole)ruthenate (III)]

## [Cl-].[Cl-].[Cl-].[Cl-].[Ru+3].c1ccc2[nH][nH+]cc2c1.c1ccc2[nH]ncc2c1.c1ccc2[nH]ncc2c1 [indazolium trans-[tetrachlorobis(1H-indazole)ruthenate (III)], reference compound]
[1]
  inducing apoptosis in certain types of cancer: highly potent

## [Cl][Ru-]([Cl])([Cl])[Cl].[Na+].c1ccc2[nH]ncc2c1.c1ccc2[nH]ncc2c1 [test drug, sodium trans-[tetrachlorobis(1H-indazole)ruthenate (III)]]
[2]; 320 mg/m^2, 7 patients dosed
  Patients w/ DLT: 1
[2]; 320 mg/m^2 on days 1, 8, 15 of 28-day cycle, carcinoid tumor patient treated over 100 weeks
  major adverse event related to the test drug: No major adverse event
[2]; 625 mg/m^2, 6 patients dosed
  Patients w/ DLT: 1
[2]; 780 mg/m^2, 9 patients dosed
  Patients w/ DLT: 3
[2]; 780 mg/m^2, patient, not premedicated with steroids
  DLT Seen at 780 mg/m^2: A person had an infusion reaction consisting of fever
[2]; 780 mg/m^2, person one
  time for Grade 2 creatinine elevation to return to baseline: within 1 week.
[2]; 780 mg/m^2, person one, following Cycle 1 Day 1 dosing, fatigue
  DLT Seen at 780 mg/m^2: Grade 1 fatigue following Cycle 1 Day 1 dosing associated
[2]; 780 mg/m^2, person one, following Cycle 1 Day 1 dosing, nausea
  DLT Seen at 780 mg/m^2: person one had Grade 2 nausea, Grade 1 vomiting,
[2]; 780 mg/m^2, person two
  time for Grade 2 creatinine elevation to return to baseline: ≤ 3 weeks.
[2]; [9]
  DLT dose: 780 mg/m^2
  maximal tolerated dose (MTD): 625 mg/m^2
[3]; 320 mg/m^2, 7 patients dosed
  Patients replaced in due to PD in Cycle 1: 1
[3]; 320 mg/m^2, total drug 531 mg, NSCLC, 7 prior systemic therapies
  Duration of therapy: 16 weeks
[3]; 320 mg/m^2, total drug 618 mg, NSCLC, 4 prior systemic therapies
  Duration of therapy: 16 weeks
[3]; [10]
  Duration of therapy: 100+ weeks
  Response: PR (partial response (PR))
[3]; [11]
  Duration of therapy: over 100 weeks
  Response: tumor regression and partial response
[3]; 420 mg/m^2, 5 patients dosed
  Patients replaced in due to PD in Cycle 1: 2
[3]; 420 mg/m^2, total drug 832 mg, NET, 0 prior systemic therapies (failed 4 prior chemo- and Yttrium-embolization procedures)
  Duration of therapy: 24 weeks
[3]; 500 mg/m^2, total drug 890 mg, Unknown primary, 2 prior systemic therapies
  Duration of therapy: 22 weeks
[3]; 625 mg/m^2, total drug 1175 mg, GE Junction, 3 prior systemic therapies
  Duration of therapy: 12+ weeks
[3]; 625 mg/m^2, total drug 1190 mg, CRC, 3 prior systemic therapies
  Duration of therapy: 12 weeks
[3]; 780 mg/m^2, 9 patients dosed
  Patients replaced in due to PD in Cycle 1: 1
[3]; 780 mg/m^2, total drug 1450 mg, Sarcoma, 3 prior systemic therapies
  Duration of therapy: 16 weeks
[3]; 780 mg/m^2, total drug 1544 mg, NET, 1 prior systemic therapy
  Duration of therapy: 27+ weeks
[3]; human dose escalating clinical trial
  minimum effective dosage for general use of treating cancer: 320 mg/m^2
[4]; Patient 1, 20 mg/m^2, Esophageal
  # weeks of treatment: 2 weeks
[4]; Patient 2, 40 mg/m^2, Head & Neck
  # weeks of treatment: 4 weeks
[4]; Patient 2, 40 mg/m^2 days 1 through 4 of 21-day cycle, Head & Neck
  Anti-tumor effect (best response): Stable disease
[4]; Patient 3, 80 mg/m^2, Mesothelioma
  # weeks of treatment: 2 weeks
[4]; Patient 4, 160 mg/m^2, Cecum
  # weeks of treatment: 2 weeks
[4]; Patient 5, 320 mg/m^2, Anal
  # weeks of treatment: 1 weeks
[4]; Patient 6, 500 mg/m^2, Rectal
  # weeks of treatment: 4 weeks
[4]; Patient 6, 500 mg/m^2 days 1 through 4 of 21-day cycle, Rectal
  Anti-tumor effect (best response): Stable disease
[4]; Patient 7, 500 mg/m^2, Esophageal
  # weeks of treatment: 2 weeks
[5]; 20 mg/m^2, plasma total Ru
  C1D1 Hour 24 ng/mL Ru: 1366 ng/mL Ru
  C1D8 Hour 0 ng/mL Ru: 528 ng/mL Ru
  C2D1 Hour 0 ng/mL Ru: 670 ng/mL Ru
[5]; 40 mg/m^2, plasma total Ru
  C1D1 Hour 24 ng/mL Ru: 2884 ng/mL Ru
  C1D8 Hour 0 ng/mL Ru: 1197 ng/mL Ru
  C2D1 Hour 0 ng/mL Ru: 1472 ng/mL Ru
[5]; 80 mg/m^2, plasma total Ru
  C1D1 Hour 24 ng/mL Ru: 4831 ng/mL Ru
[5]; 160 mg/m^2, plasma total Ru
  C1D1 Hour 24 ng/mL Ru: 4639 ng/mL Ru
  C1D8 Hour 0 ng/mL Ru: 4000 ng/mL Ru
  C2D1 Hour 0 ng/mL Ru: 6588 ng/mL Ru
[5]; 320 mg/m^2, plasma total Ru
  C1D1 Hour 24 ng/mL Ru: 20033 ng/mL Ru
  C1D8 Hour 0 ng/mL Ru: 7667 ng/mL Ru
  C2D1 Hour 0 ng/mL Ru: 10126 ng/mL Ru
[5]; 420 mg/m^2, plasma total Ru
  C1D1 Hour 24 ng/mL Ru: 25921 ng/mL Ru
  C1D8 Hour 0 ng/mL Ru: 9595 ng/mL Ru
  C2D1 Hour 0 ng/mL Ru: 14698 ng/mL Ru
[5]; 500 mg/m^2, plasma total Ru
  C1D1 Hour 24 ng/mL Ru: 28070 ng/mL Ru
  C1D8 Hour 0 ng/mL Ru: 11880 ng/mL Ru
  C2D1 Hour 0 ng/mL Ru: 13000 ng/mL Ru
[5]; 625 mg/m^2, plasma total Ru
  C1D1 Hour 24 ng/mL Ru: 35216 ng/mL Ru
  C1D8 Hour 0 ng/mL Ru: 12303 ng/mL Ru
  C2D1 Hour 0 ng/mL Ru: 14363 ng/mL Ru
[5]; 780 mg/m^2, plasma total Ru
  C1D1 Hour 24 ng/mL Ru: 43105 ng/mL Ru
  C1D8 Hour 0 ng/mL Ru: 17001 ng/mL Ru
  C2D1 Hour 0 ng/mL Ru: 22125 ng/mL Ru
[5]; 20 to 780 mg/m^2
  dose proportionality of Cmax and AUC0-168: good dose proportionality
[5]; after start of infusion, Cycle 1 Day 1
  time by which peak plasma Ru levels were achieved: ≤ 2 h
[5]; noted by Cycle 1 Day 8 and Cycle 2 Day 1 levels
  accumulation of Ru following dosing: There is accumulation of Ru following dosing
[5]; plasma total Ru, patients
  estimated T½: 91.4 to 112 h
[6]
  urinary excretion of the test drug derived ruthenium: low urinary excretion
[7]; 320 mg/m^2, no steroid premedication, 3 patients
  # with fever: 0
[7]; 320 mg/m^2, steroid premedication, 4 patients
  # with fever: 0
[7]; 420 mg/m^2, no steroid premedication, 3 patients, one had fever but then none after premed of additional doses
  # with fever: 2*
[7]; 420 mg/m^2, steroid premedication, 2 patients
  # with fever: 0
[7]; 500 mg/m^2, no steroid premedication, 1 patient
  # with fever: 1
[7]; 500 mg/m^2, steroid premedication, 2 patients
  # with fever: 0
[7]; 625 mg/m^2, no steroid premedication, 8 patients
  # with fever: 1
[7]; 625 mg/m^2, steroid premedication, 10 patients
  # with fever: 0
[7]; 780 mg/m^2, no steroid premedication, 3 patients
  # with fever: 1
[7]; 780 mg/m^2, steroid premedication, 6 patients
  # with fever: 0
[7]; at therapeutically effective doses
  incidence of fever or chill on intravenous infusion: higher incidence of fever or chill
[7]; patients without premedication, US trial
  infusional fever: high likelihood of infusional fever
[8]
  adverse reactions: fever and chill were seen
[1]
  inducing apoptosis in certain types of cancer: highly potent
